Experimental data taken from patent US20250290117A1, “MOLECULAR PHENOTYPIC ANTIMICROBIAL SUSCEPTIBILITY TESTING” (priority 2024, published 2025).

Columns and labels:
[1] = tested on: Staphylococcus epidermidis; test: Molecular phenotypic antimicrobial susceptibility test (semi-quantitative PCR after antimicrobial exposure; extraction/DNA purification prior to PCR); type: cell-based
Method: (§1) Detection of Molecular Phenotypic Antimicrobial Susceptibility. Disclosed herein are the methods for the detection of phenotypic antimicrobial susceptibility via molecular methods. The present invention describes how a specimen 100 with a known microbial load is incubated and then exposed to a panel of antimicrobial agents to determine sensitivity (prevention of growth) or resistance (allowance of growth) to the specific antimicrobial agents tested utilizing molecular methods.
(§2) Sample Collection. Specimens 100 are collected from patients using sterile collection processes that are employed in routine clinical care. Specimens are transported to the testing facility in boric acid preservative. Specimens 100 are subsequently divided into a first sample 104 and a second sample 108.
(§3) Preparation of the Specimens for Testing. The specimens 100 are put through a pathogen identification process using PCR technology (e.g., using the first sample 104). The process for pathogen isolation includes steps of harvesting the pathogen (e.g., via centrifugation), isolating pathogen DNA via a DNA isolation and/or purification kit, and performing PCR on the pathogen DNA via PCR components (e.g., primers, enzymes, buffers) as would be known to the skilled artisan. Simultaneously, an additional aliquot of the same specimen (e.g., the second sample 108) is placed with liquid culture media and incubated for 4-6 hours. This aliquot is used for antimicrobial susceptibility testing if indicated based on the pathogen detection results. After pathogen identification is completed and if more than 10,000 cells/mL of bacteria (e.g., eligible bacteria) are detected in the source specimen, the second sample 108 then enters the antimicrobial susceptibility phase of testing. Specimens 100 with lower pathogen loads could also be utilized in the antibiotic susceptibility phase of testing with or without a longer incubation period.
(§4) Preparation of Antimicrobial Susceptibility Testing Plates. Antimicrobial solutions are prepared at known concentrations. The specific antimicrobials and their concentrations are selected based on the pathogen of interest and the described antimicrobial resistance breakpoints for that specimen pathogen and antimicrobial combination. These antimicrobials have been selected based on those commonly utilized by healthcare providers in routine clinical care for the specific type of suspected infection. The number and types of antimicrobials utilized can be customized based on the infection source, pathogen detected, patient-specific factors such as allergies or other health conditions (e.g., chronic kidney disease or concurrent medication use), or healthcare provider preferences such as antimicrobial availability or cost.
(§5) The antimicrobial solutions are prepared in liquid culture media (such as Muller Hinton Broth) to achieve the desired antimicrobial concentration and are then stored at −80° C. until use. For a given specimen, each antimicrobial is tested at a single or multiple antimicrobial concentration(s) which is its established breakpoints for sensitivity. The antimicrobial solutions are prepared and plated out for each specific pathogen. This allows ease of use on the day of testing after defrosting the plate 112. Table 1, which illustrates the results of molecular phenotypic antimicrobial susceptibility testing when more than one organism is present in the source specimen, provides an example of an antimicrobial plate 112 prepared for this purpose. Of note, control wells containing only culture media are present on all plates 112. This allows for evaluation of pathogen load when no antimicrobial is present.
(§6) Specimen Exposure to Antimicrobial Agents. The 1 mL aliquot of the specimen 100 previously mixed with culture media and incubated is obtained. Using optical density measurements as a guide, the specimen 100 is diluted to 0.5 McFarland. […]

[2] = tested on: Staphylococcus epidermidis; test: Traditional culture-based antimicrobial susceptibility test; type: cell-based
Source text: Table 1 illustrates the results of an example antimicrobial agent susceptibility test of the current application versus a traditional culture-based antimicrobial agent susceptibility test for Staphylococcus epidermidis. This specimen underwent extraction or DNA purification prior to PCR. The results of the test of the current application are similar to the results from the traditional test, with the results from the test of the current application being reportable considerably earlier than the test of the traditional test due no pathogen isolation requirement and due to less incubation time being required for the test of the current application. Result Reporting to Healthcare Providers. The results from the antimicrobial exposure are reported to the ordering healthcare provider. This information can be utilized by the healthcare provider when selecting an antimicrobial regimen for their individual patient based on these individual specimen results and patient specific factors. […] The current standard of care for antimicrobial susceptibility testing involves the growth, isolation, and exposure of pathogens to antimicrobials. This traditional culture and sensitivity process can take multiple days to obtain results, limiting the ability of healthcare providers to receive timely results to make actionable changes in patient care or management. Healthcare providers desire a method to obtain antimicrobial susceptibility results with quicker turn-around-time. This application discloses a molecular-based phenotypic antimicrobial susceptibility method which involves pathogen exposure to a panel of antimicrobial agents at their specified minimum inhibitory concentration breakpoints for sensitivity. This method allows for more timely antimicrobial susceptibility results.

P. aeruginosa = test: Molecular phenotypic antimicrobial susceptibility test with direct PCR (no extraction DNA purification step); type: cell-based, Pseudomonas aeruginosa; conditions: for Ct at Sensitive Breakpoint: P. aeruginosa isolate MRSN1938, Ct at control (average) 12.031; for Molecular Antimicrobial Susceptibility Result: P. aeruginosa isolate MRSN1938, at sensitive breakpoint
Method: as §1, §2, §3, §4, §5, §6

[3] = S. epidermidis isolate 1, Ct at control (average) 10.611
[4] = S. epidermidis isolate 1, at sensitive breakpoint
[5] = S. epidermidis isolate 2, Ct at control (average) 11.861
[6] = S. epidermidis isolate 2, at sensitive breakpoint
[7] = S. epidermidis isolate 3, Ct at control (average) 12.941
[8] = S. epidermidis isolate 3, at sensitive breakpoint
[9] = S. epidermidis isolate 4, Ct at control (average) 11.861
[10] = S. epidermidis isolate 4, at sensitive breakpoint
[11] = S. epidermidis isolate 5, Ct at control (average) 12.941
[12] = S. epidermidis isolate 5, at sensitive breakpoint

CN[C@H](CC(C)C)C(=O)N[C@H]1C(=O)N[C@@H](CC(N)=O)C(=O)N[C@H]2C(=O)N[C@H]3C(=O)N[C@H](C(=O)N[C@H](C(=O)O)c4cc(O)cc(O)c4-c4cc3ccc4O)[C@H](O)c3ccc(c(Cl)c3)Oc3cc2cc(c3O[C@@H]2O[C@H](CO)[C@@H](O)[C@H](O)[C@H]2O[C@H]2C[C@](C)(N)[C@H](O)[C@H](C)O2)Oc2ccc(cc2Cl)[C@H]1O [Vancomycin]
Ct at Sensitive Breakpoint [1, 3]: 12.950
Molecular Antimicrobial Susceptibility Result [1, 4]: Sensitive (Antimicrobial wells with pathogen load detected below the control wells (typically >2 cycle thresholds later) may be reported as Sensitive)
Ct at Sensitive Breakpoint [1, 5]: 18.235
Molecular Antimicrobial Susceptibility Result [1, 6]: Sensitive (Antimicrobial wells with pathogen load detected below the control wells (typically >2 cycle thresholds later) may be reported as Sensitive)
Ct at Sensitive Breakpoint [1, 7]: 18.173
Molecular Antimicrobial Susceptibility Result [1, 8]: Sensitive (Antimicrobial wells with pathogen load detected below the control wells (typically >2 cycle thresholds later) may be reported as Sensitive)
Ct at Sensitive Breakpoint [1, 9]: 20.001
Molecular Antimicrobial Susceptibility Result [1, 10]: Sensitive (Antimicrobial wells with pathogen load detected below the control wells (typically >2 cycle thresholds later) may be reported as Sensitive)
Ct at Sensitive Breakpoint [1, 11]: 8.719
Molecular Antimicrobial Susceptibility Result [1, 12]: Resistant
Traditional Culture Result ([2]; S. epidermidis isolate 1): Sensitive
Traditional Culture Result ([2]; S. epidermidis isolate 2): Sensitive
Traditional Culture Result ([2]; S. epidermidis isolate 3): Sensitive
Traditional Culture Result ([2]; S. epidermidis isolate 4): Sensitive
Traditional Culture Result ([2]; S. epidermidis isolate 5): Sensitive

C[C@@H](O)[C@H]1C(=O)N2C(C(=O)O)=C(S[C@@H]3CN[C@H](C(=O)N(C)C)C3)[C@H](C)[C@H]12 [Meropenem]
Ct at Sensitive Breakpoint (P. aeruginosa): 12.404
Molecular Antimicrobial Susceptibility Result (P. aeruginosa): Resistant

Trimethoprim/Sulfamethoxazole [TMP/SMX]
Ct at Sensitive Breakpoint [1, 3]: 10.79
Molecular Antimicrobial Susceptibility Result [1, 4]: Resistant
Ct at Sensitive Breakpoint [1, 5]: 10.503
Molecular Antimicrobial Susceptibility Result [1, 6]: Resistant
Ct at Sensitive Breakpoint [1, 7]: 11.341
Molecular Antimicrobial Susceptibility Result [1, 8]: Resistant
Ct at Sensitive Breakpoint [1, 9]: 10.970
Molecular Antimicrobial Susceptibility Result [1, 10]: Resistant
Ct at Sensitive Breakpoint [1, 11]: 12.620
Molecular Antimicrobial Susceptibility Result [1, 12]: Resistant
Traditional Culture Result ([2]; S. epidermidis isolate 1): Resistant
Traditional Culture Result ([2]; S. epidermidis isolate 2): Resistant
Traditional Culture Result ([2]; S. epidermidis isolate 3): Resistant
Traditional Culture Result ([2]; S. epidermidis isolate 4): Resistant
Traditional Culture Result ([2]; S. epidermidis isolate 5): Resistant

CO/N=C(\C(=O)N[C@@H]1C(=O)N2C(C(=O)[O-])=C(C[N+]3(C)CCCC3)CS[C@H]12)c1csc(N)n1 [Cefepime]
Ct at Sensitive Breakpoint [1, 3]: 11.785
Molecular Antimicrobial Susceptibility Result [1, 4]: Resistant
Ct at Sensitive Breakpoint [1, 5]: 8.669
Molecular Antimicrobial Susceptibility Result [1, 6]: Resistant
Ct at Sensitive Breakpoint [1, 7]: 8.646
Molecular Antimicrobial Susceptibility Result [1, 8]: Resistant
Ct at Sensitive Breakpoint [1, 9]: 8.418
Molecular Antimicrobial Susceptibility Result [1, 10]: Resistant
Ct at Sensitive Breakpoint [1, 11]: 8.474
Molecular Antimicrobial Susceptibility Result [1, 12]: Resistant
Traditional Culture Result ([2]; S. epidermidis isolate 1): Resistant
Traditional Culture Result ([2]; S. epidermidis isolate 2): Resistant
Traditional Culture Result ([2]; S. epidermidis isolate 3): Resistant
Traditional Culture Result ([2]; S. epidermidis isolate 4): Resistant
Traditional Culture Result ([2]; S. epidermidis isolate 5): Resistant
Ct at Sensitive Breakpoint (P. aeruginosa): 13.373
Molecular Antimicrobial Susceptibility Result (P. aeruginosa): Sensitive (Antimicrobial wells with pathogen load detected below the control wells (typically >2 cycle thresholds later) may be reported as Sensitive)

C[C@H]1COc2c(N3CCN(C)CC3)c(F)cc3c(=O)c(C(=O)O)cn1c23 [Levofloxacin]
Ct at Sensitive Breakpoint (P. aeruginosa): 12.853
Molecular Antimicrobial Susceptibility Result (P. aeruginosa): Resistant

Piperacillin/Tazobactam
Ct at Sensitive Breakpoint (P. aeruginosa): 13.375
Molecular Antimicrobial Susceptibility Result (P. aeruginosa): Sensitive (Antimicrobial wells with pathogen load detected below the control wells (typically >2 cycle thresholds later) may be reported as Sensitive)

O=C(O)c1cn(C2CC2)c2cc(N3CCNCC3)c(F)cc2c1=O [Ciprofloxacin]
Ct at Sensitive Breakpoint (P. aeruginosa): 12.239
Molecular Antimicrobial Susceptibility Result (P. aeruginosa): Resistant
